The source of these data is patent publication US11963971B2, “Combination decitabine and cedazuridine solid oral dosage forms” (Otsuka Pharmaceutical Co., Ltd., priority 2020, dated 2024).

Data set [1] is described as follows: ASTX727 Phase 1 dose escalation study: plasma decitabine pharmacokinetics (AUC). The following applies: for AUC(0-t): human, plasma. Format: in vivo, human. How it is done:
The ASTX727 Phase 1 study was a dose escalation designed to establish the recommended doses of cedazuridine and decitabine likely to achieve AUC equivalence with standard dose decitabine IV (decitabine 20 mg/m^2 IV). FIG. 1 provides an overview of the study design. In Cycle 1, each patient received a cohort-defined dose of oral decitabine on day −3, a 1-h intravenous infusion of decitabine 20 mg/m^2 on day 1, and cohort-defined doses of oral decitabine plus cedazuridine on days 2-5. In Cycles 2 and beyond, the oral decitabine and cedazuridine were given on days 1-5. The dose of cedazuridine was escalated first and decitabine was escalated once CDA inhibition by cedazuridine approached the maximum effect. Only one drug was escalated per cohort. Fixed doses were given without adjustment for bodyweight or body surface area. Days −3, 1, 2, and 5 for decitabine included a full-day pharmacokinetic analysis. The starting dose was 20 mg for oral decitabine and 40 mg for cedazuridine (a human equivalent dose with approximately 100 times greater safety margin than the no-observed adverse effect level in cynomolgus monkeys). […] Dose-limiting toxicity was defined as a grade 4 hematologic toxicity or grade 3 lasting more than 14 days and unrelated to the underlying disease. […] Dose escalation for patients who previously received a lower dose was allowed at the discretion of the investigator if the patient had tolerated the originally assigned doses.
The pharmacokinetic profile of decitabine was characterized through analysis of plasma treated with EDTA (edetic acid) by validated liquid chromatography-tandem mass spectrometry, with tetrahydrouridine (Santa Cruz Biotechnology, Dallas, TX) for stabilization and with a linear assay range of 0.5-100 ng/mL for decitabine. Serial plasma samples (from before dose administration until 24 h after administration) were collected on days −3, 1, 2, and 5 (also immediately before dose administration on days 3 and 4) during the first cycle. Specifically, pharmacokinetic samples were obtained before dose administration and 0.25 h, 0.5 h, 1.0 h (for IV only 1.083 h), 1.5 h, 2 h, 3 h, 4 h, 6 h, 8 h, and 24 h after the dose.

Data set [2] in a line: Phase 3 randomized cross over study: 5-day decitabine AUC equivalence, oral ASTX727 vs IV decitabine. Format: in vivo. As to conditions: human, plasma, 20 mg/m2; Phase 3 primary analysis, paired population N=123; IV decitabine 20 mg/m^2; read-out: Decitabine 5-day AUC0-24, IV DEC Geo. LSM. The text has this:
The Primary Endpoint PK Analysis Set is used to calculate decitabine 5-day cumulative AUC0-t exposures after administration of the solid dosage form. The following assumptions are used: • 1) Steady state is reached on Day 2 of dosing with the solid dosage form; • 2) Based on steady state achievement on Day 2, decitabine AUC0-t from Day 2 and Day 5 is representative of daily AUC0-t on Days 2 through Day 5 in a putative 5-day dosing with the solid dosage form.
Therefore, to calculate total 5-day oral decitabine AUC0-t exposures using PK data from 3 days sequential PK sampling, Day 1 AUC0-t (first solid dosage form dose) is added to (Day 2 AUC0-t+Day 5 AUC0-t)×2. If AUC0-t on Day 2 is not available, it is replaced by AUC0-t on Day 5; the converse is also true.
If AUC0-t on Day 1 is not available, it is replaced by AUC0-t on Day 5; the converse is also true. Note that t=24 hrs, so AUC0-t is AUC0-24.
Phase 3 was a randomized cross over design where MDS and CMML patients eligible to receive decitabine were randomized to Sequence A where they received ASTX727 in Cycle 1 then IV decitabine in Cycle 2, or Sequence B with the reverse order. All patients received ASTX727 from Cycle 3 onwards to assess long term efficacy and safety. 118 evaluable patients were needed to show AUC equivalence between oral and IV administrations. […]

Data set [3] is described as follows: ASTX727 Phase 2 randomized cross over dose confirmation: plasma decitabine 5-day AUC, oral vs IV. Format: in vivo. The following applies: human, read-out: Decitabine 5-day AUC0-t, IV Geo. LSM.
The subject of data set [4] is MDS and CMML patients. Put plainly: Phase 2 safety: related adverse events Grade ≥3 in ≥5% of patients. The data set is classed as in vivo, human. The following applies: Phase 2, Cycle 1 or 2; IV DEC N = 75, ASTX727 N = 78. How it is done: The ASTX727 Phase 2 study was a randomized cross over design of decitabine 20 mg/m^2 IV daily (for 5 days) vs. oral decitabine/cedazuridine once daily (for 5 days) in Cycle 1 with patients crossing over to the other drug in Cycle 2 (See FIG. 3). From Cycle 3 onward, all patients continued on oral decitabine/cedazuridine once daily (for 5 days), each cycle every 28 days, until progression.
Changes in DNA methylation after treatment were expressed as relative change (%), calculated as: 100×([methylation on a given post-treatment day]−[baseline methylation]. Adverse event assessments through physical examinations and laboratory monitoring (haematology, metabolic profile, and liver enzymes) were done before treatment on day 1 of each cycle (weekly for haematology in the first two cycles). While on treatment, patients were assessed for adverse events and clinical response, including haematology, metabolic profile, liver enzymes, directed physical examinations, vital signs, transfusion records, and dosing records. Once off treatment, patients were followed up for survival and transformation to acute myeloid leukemia. Dose reduction or delays were permitted at the investigators' discretion to allow for recovery from drug-related myelosuppression.

Marks after values point to notes of the source that are not given here.

`Nc1ncn([C@H]2C[C@H](O)[C@@H](CO)O2)c(=O)n1` [IV DEC, 5-aza-2′-deoxycytidine]: the “5-days Total AUC0-t, IV (N = 41), geometric mean” value in data set [1] (IV decitabine 20 mg/m^2, total IV population of all cohorts (N = 41)) was 821^d h · ng/ml. The AUC(0-t) in data set [1] (iv, 20 mg/m2, Cohort 1, N=5 (extreme outlier excluded), IV decitabine 20 mg/m^2, day 1, read-out: AUC0-t by day, IV D1, Geometric Mean (gCV %)) is 138 ng·h/mL; in data set [1] (iv, 20 mg/m2, Cohort 2, N=6, IV decitabine 20 mg/m^2, day 1, read-out: AUC0-t by day, IV D1, Geometric Mean (gCV %)), 170 ng·h/mL; in data set [1] (iv, 20 mg/m2, Cohort 3, N=6, IV decitabine 20 mg/m^2, day 1, read-out: AUC0-t by day, IV D1, Geometric Mean (gCV %)) it was 192 ng·h/mL; in data set [1] (iv, 20 mg/m2, Cohort 4, N=6, IV decitabine 20 mg/m^2, day 1, read-out: AUC0-t by day, IV D1, Geometric Mean (gCV %)), 153 ng·h/mL; in data set [1] (iv, 20 mg/m2, Cohort 5, IV decitabine 20 mg/m^2, day 1, IV data from 18 patients (one extreme outlier excluded), read-out: AUC0-t by day, IV D1, Geometric Mean (gCV %)) it was 166 ng·h/mL; in data set [1] (iv, 20 mg/m^2, Cohort 1, N=6, IV decitabine 20 mg/m^2 1-h infusion, day 1, read-out: AUC0-t by day, IV D1, Geometric Mean (gCV %)), 159 ng·h/mL. Besides, the AUC(0-t) in data set [1] (po, 20 mg, Cohort 1, N=5 (extreme outlier excluded), oral DEC 20 mg alone, day −3, read-out: AUC0-t by day, D −3 (DEC alone), Geometric Mean (gCV %)) was 7.9 ng·h/mL; in data set [1] (po, 20 mg, Cohort 1, N=6, oral DEC 20 mg alone, day −3, plasma decitabine, read-out: AUC0-t by day, D −3 (DEC alone), Geometric Mean (gCV %)), 10.7 ng·h/mL; in data set [1] (po, 20 mg, Cohort 2, N=6, oral DEC 20 mg alone, day −3, read-out: AUC0-t by day, D −3 (DEC alone), Geometric Mean (gCV %)), 7.49 ng·h/mL; in data set [1] (po, 20 mg, Cohort 3, N=6, oral DEC 20 mg alone, day −3, read-out: AUC0-t by day, D −3 (DEC alone), Geometric Mean (gCV %)), 7.9 ng·h/mL; in data set [1] (po, 30 mg, Cohort 5, N=19, oral DEC 30 mg alone, day −3, read-out: AUC0-t by day, D −3 (DEC alone), Geometric Mean (gCV %)), 15.3 ng·h/mL; in data set [1] (po, 40 mg, Cohort 4, N=6, oral DEC 40 mg alone, day −3, read-out: AUC0-t by day, D −3 (DEC alone), Geometric Mean (gCV %)) it was 29.8 ng·h/mL. For the same molecule, the AUC(0-t) was determined as 865 ng·h/mL in data set [2]; 745 ng·h/mL in data set [3] (20 mg/m^2, Phase 2 FDC tablet stage, N=24, 20 mg/m^2 IV infusion (1 h) of decitabine); 803 ng·h/mL in data set [3] (20 mg/m^2, Phase 2 capsule stage, N=40, 20 mg/m^2 IV infusion (1 h) of decitabine). Also, the “Anemia, related AE Grade ≥3” value in data set [4] is on record as 4 (5.3%) n (%). Besides, in data set [4], the “Any Grade ≥3 Related AEs” value is 24 (32%) n (%). For the same molecule, the “Febrile Neutropenia, related AE Grade ≥3” value in data set [4] is 4 (5.3%) n (%). The “Leukopenia, related AE Grade ≥3” value in data set [4] was 6 (8.0%) n (%). The “Neutropenia, related AE Grade ≥3” value in data set [4] is listed as 16 (21.3%) n (%). In addition, in data set [4], the “Thrombocytopenia, related AE Grade ≥3” value is recorded as 11 (14.7%) n (%).
